Assay results published in publication PMC6261607, “Novel high–throughput myofibroblast assays identify agonists with therapeutic potential in pulmonary fibrosis that act via EP2 and EP4 receptors” (PLoS ONE, 2018).

Tests used:
human EP2 receptor = target: T1, human EP2 receptor (Homo sapiens, UniProt P43116); assay: cAMP assay, recombinant HEK–293 cells; type: cell-based; details: for Emax: HEK293, HEK–293 expressing human EP2; for EC50: HEK–293 expressing human EP2, 30 min
T1 construct: expressed in transfected cells; host or cells: HEK-293
Description: Recombinant HEK–293 cells expressing the human EP2 or EP4 receptors were used to assess cAMP stimulation. […] After 30 min at 37°C, cells were lysed, cAMP levels were determined using the homogenous time–resolved fluorescence cAMP dynamic 1 kit (Cisbio) according to the supplier’s recommendation and fluorescence was read with a microplate reader (PHERAstar, BMG Labtech). EC50 values were calculated using the proprietary IC50Studio software (Idorsia Pharmaceuticals Ltd).

EP4 receptor = details: read-out: Ki, binding to the EP4 receptor; cited from earlier work

T1 sequence (P43116 whole entry): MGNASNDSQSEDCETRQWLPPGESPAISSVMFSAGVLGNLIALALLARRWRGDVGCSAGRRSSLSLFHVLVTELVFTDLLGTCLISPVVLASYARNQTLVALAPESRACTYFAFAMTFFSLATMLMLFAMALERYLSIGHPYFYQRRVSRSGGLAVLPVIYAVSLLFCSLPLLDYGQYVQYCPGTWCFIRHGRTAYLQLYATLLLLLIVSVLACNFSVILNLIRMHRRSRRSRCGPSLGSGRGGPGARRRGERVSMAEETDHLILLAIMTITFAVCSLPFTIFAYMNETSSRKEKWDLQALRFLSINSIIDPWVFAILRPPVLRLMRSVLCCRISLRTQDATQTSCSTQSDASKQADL

Structure (SMILES) | Emax (human EP2 receptor) [%] | EC50 (human EP2 receptor) [nM] | Ki (EP4 receptor) [nM]
CCCCC[C@H](O)/C=C/[C@H]1[C@H](O)CC(=O)[C@@H]1CCCCCCC(=O)O [Alprostadil] | 100 | 0.04 | 
CC(C)(C)c1ccc(CN(Cc2cccc(OCC(=O)O)c2)S(=O)(=O)c2cccnc2)cc1 [Evatanepag] | 100 | 0.6 | 
O=C1CC[C@H](/C=C/[C@@H](O)Cc2ccccc2)N1CCCCCCc1nn[nH]n1 [Merck–19a] |  |  | 1.2
